# Data reported in US8227470B2, “Combination treatment of solid cancers with antimetabolites and tyrosine kinase inhibitors” (AB Science, priority 2007, dated 2012).
# Entries after “also recorded” stand apart in the source; their conditions may differ.
# Experiments:
# [1] = target: T1, FAK kinase (Homo sapiens, UniProt Q05397); test: SelectScreen kinase Profiling (Invitrogen), purified kinases; type: biochemical; conditions: inhibitor at 1 μM (1,000 nM); for inhibition at 1 µM: read-out: Percentage of inhibition of FAK kinase activity
# [2] = system: Mia Paca-2; test: WST-1 cell proliferation and viability assay; type: cell-based; conditions: for sensitization to gemcitabine by pre-treatment: MiaPaca-2, pre-treatment 12-16 hours (AB1010 5 and 10 μM; STI571 up to 10 μM) before gemcitabine
# Experimental: (§1) Pancreatic, colon and prostate cancer cell lines (generous gift from Dr. Juan Iovanna, INSERM U624, Marseille, France), breast and ovarian cancer cell lines (generous gift from Dr. Patrice Dubreuil, UMR 599 INSERM, Marseille, France), and lung cancer cell line (generous gift from Pr. Christian Auclair, UMR 8113 CNRS) were cultured as monolayers in RPMI 1640 medium containing L-glutamine supplemented with 100 U/mL penicillin and 100 μg/mL streptomycin, and 10% v/v heat-inactivated foetal calf serum (AbCys Lot SO2823S1800) under standard culture conditions (5% CO2, 95% air in humidified chamber at 37° C.).
# (§2) During proliferation assay, all cells were grown in medium containing 1% FCS.
# (§3) Colorimetric cell proliferation and viability assay (reagent WST-1 purchased from Roche cat N° 1644807)
# (§4) The cells were washed once and resuspended in RPMI 1% FCS. Cells at 1.10^4/50 μl were plated per well of a 96 well plate.
# (§5) Drug dilutions were prepared in a 96 well plate and obtained by sequential dilutions of AB1010 or gemcitabine in RPMI 1.
# (§6) Treatment was started by the addition of 50 μl of a 2× concentrated drug solution to a final volume of 100 μl.
# For treatment with combination of AB1010 and gemcitabine, the cells were first resuspended in medium RPMI 1% FCS containing AB1010 at the concentrations of 0, 2, 5 and 10 μM. 1.10^4 cells/50 μl were plated per well of a 96 wells plate and the plates placed in the incubator o/n before treatment with cytotoxic agents. Cytotoxic agent treatment was initiated by addition of 50 μl of a 2× drug dilution (and containing the respective AB1010 drug concentration) to a final volume of 100 μl. […] The absorbance of the samples was measured at 490 nm using an EL800 Universal microplate reader (Bio-Tek Instruments Inc.).
# A background control without cells was used as a blank for the ELISA reader. […]
# (§7) Each sample was done in duplicate, the absorbance values were transferred to an excel file, the average and standard deviation of the duplicates were calculated and expressed as a percentage of the proliferation obtained in absence of treatment. […]
# [3] = system: breast tumour cell lines; test: WST-1 proliferation assay, breast lines with docetaxel; type: cell-based
# Experimental: as §1, §2, §3
# (§8) The cells were washed once and resuspended in RPMI 1% FCS. […]
# (§9) For treatment with combination of AB1010 and gemcitabine, the cells were first resuspended in medium RPMI 1% FCS containing AB1010 at the concentrations of 0, 2, 5 and 10 μM. […] The absorbance of the samples was measured at 490 nm using an EL800 Universal microplate reader (Bio-Tek Instruments Inc.).
# as §7
# [4] = system: colon HT-29; test: WST-1 proliferation assay, sensitization to gemcitabine; type: cell-based; conditions: colon HT-29, the one resistant line in which sensitivity was not restored
# Experimental: as §1, §2, §3, §4
# (§10) For treatment with combination of AB1010 and gemcitabine, the cells were first resuspended in medium RPMI 1% FCS containing AB1010 at the concentrations of 0, 2, 5 and 10 μM. 1.10^4 cells/50 μl were plated per well of a 96 wells plate and the plates placed in the incubator o/n before treatment with cytotoxic agents. Cytotoxic agent treatment was initiated by addition of 50 μl of a 2× drug dilution (and containing the respective AB1010 drug concentration) to a final volume of 100 μl. AB1010 final concentrations remained 0, 2, 5 and 10 μM. After incubating for 48-72 hours at 37° C., 10 μl of a ½ dilution of WST-1 reagent was added to each well and the plates were returned to the incubator for an additional 4 hours. The absorbance of the samples was measured at 490 nm using an EL800 Universal microplate reader (Bio-Tek Instruments Inc.).
# (§11) Each sample was done in duplicate, the absorbance values were transferred to an excel file, the average and standard deviation of the duplicates were calculated and expressed as a percentage of the proliferation obtained in absence of treatment.
# (§12) In order to evaluate the ability of AB1010 to sensitize other tumour types to gemcitabine, we performed similar studies on prostate, lung, ovarian and colon tumour cell lines.
# [5] = system: rectum HRT-18, and colon Caco-2 and SW-480 cell lines; test: as above; type: cell-based; conditions: rectum HRT-18, colon Caco-2 and SW-480; AB1010 pre-treatment
# Experimental: as §1, §2, §3, §4, §10, §11, §12
# [6] = system: ovarian OVCAR-3 cell lines; test: as above; type: cell-based; conditions: AB1010 pre-treatment
# Experimental: as §1, §2, §3, §4, §10, §11, §12
# [7] = system: lung A549 and H1299 cell lines; test: as above; type: cell-based; conditions: AB1010 pre-treatment
# Experimental: as §1, §2, §3, §4, §10, §11, §12
# [8] = system: prostate DU145, and C4-2 cell lines; test: as above; type: cell-based; conditions: AB1010 pre-treatment
# Experimental: as §1, §2, §3, §4, §10, §11, §12
# [9] = system: human mast cell line expressing the JMΔ27 mutated c-kit; test: Apoptosis induction in mast cell line; type: cell-based; conditions: 0.1 μM, after 48 hours; control cells 10% apoptotic
# Experimental: (§13) In this experiment, after 48 hours, 0.1 μM AB1010 induced apoptosis of approximately 50% versus control cells in which 10% of cells were apoptotic. In addition, a separate cell line (Ba/F3-derived) expressing JMΔ27 was tested and apoptosis was induced to a level of approximately 85%.
# [10] = target: T1, FAK kinase; test: Western blot of FAK activation status (anti PY / anti phospho FAK); type: cell-based; conditions: FIG. 3B
# From the text: Pancreatic tumour cells lines are described to express high level of the non-receptor tyrosine kinase FAK that contributes to resistance to gemcitabine. […] By the use of either anti PY or anti phospho FAK antibodies, we studied by western blot assay the activation status of FAK kinase.
# [11] = system: HRT-18; test: WST-1 proliferation assay, sensitization to Irinotecan; type: cell-based; conditions: most resistant colorectal cell line HRT-18; AB1010 pre-treatment
# Experimental: as §1, §2, §3, §4
# […] The absorbance of the samples was measured at 490 nm using an EL800 Universal microplate reader (Bio-Tek Instruments Inc.).
# as §7
# [12] = system: ovarian tumour cell lines; test: WST-1 proliferation assay, ovarian lines with paclitaxel; type: cell-based
# Experimental: as §1, §2, §3, §8, §9, §7
# [13] = system: Capan-2; test: WST-1 cell proliferation and viability assay; type: cell-based
# Experimental: as §1, §2, §3, §4, §5, §6, §10
# (§14) A background control without cells was used as a blank for the ELISA reader.
# (§15) The positive control of the assay corresponds to the cell proliferation obtained in the absence of drug treatment (100% proliferation).
# as §11
# (§16) To determine the IC50 concentration of gemcitabine on pancreatic cell lines, the cells were grown in 1% FCS and exposed to different doses of the drug.
# (§17) To determine the IC50 concentration of gemcitabine used in association with AB1010, pancreatic cell lines grown in 1% FCS were pre-treated with AB1010 for about 12-16 hours before being exposed to different doses of the gemcitabine.
# [14] = system: Panc-1; test: WST-1 cell proliferation and viability assay; type: cell-based
# Experimental: as §1, §2, §3, §4, §5, §6, §10, §14, §15, §11, §16, §17
# [15] = system: BxPC-3; test: WST-1 cell proliferation and viability assay; type: cell-based
# Experimental: as §1, §2, §3, §4, §5, §6, §10, §14, §15, §11, §16, §17
# [16] = system: cell line (Ba/F3-derived) expressing JMΔ27; test: Apoptosis induction in Ba/F3-derived cell line; type: cell-based
# Experimental: as §13
# T1 sequence (Q05397 whole entry): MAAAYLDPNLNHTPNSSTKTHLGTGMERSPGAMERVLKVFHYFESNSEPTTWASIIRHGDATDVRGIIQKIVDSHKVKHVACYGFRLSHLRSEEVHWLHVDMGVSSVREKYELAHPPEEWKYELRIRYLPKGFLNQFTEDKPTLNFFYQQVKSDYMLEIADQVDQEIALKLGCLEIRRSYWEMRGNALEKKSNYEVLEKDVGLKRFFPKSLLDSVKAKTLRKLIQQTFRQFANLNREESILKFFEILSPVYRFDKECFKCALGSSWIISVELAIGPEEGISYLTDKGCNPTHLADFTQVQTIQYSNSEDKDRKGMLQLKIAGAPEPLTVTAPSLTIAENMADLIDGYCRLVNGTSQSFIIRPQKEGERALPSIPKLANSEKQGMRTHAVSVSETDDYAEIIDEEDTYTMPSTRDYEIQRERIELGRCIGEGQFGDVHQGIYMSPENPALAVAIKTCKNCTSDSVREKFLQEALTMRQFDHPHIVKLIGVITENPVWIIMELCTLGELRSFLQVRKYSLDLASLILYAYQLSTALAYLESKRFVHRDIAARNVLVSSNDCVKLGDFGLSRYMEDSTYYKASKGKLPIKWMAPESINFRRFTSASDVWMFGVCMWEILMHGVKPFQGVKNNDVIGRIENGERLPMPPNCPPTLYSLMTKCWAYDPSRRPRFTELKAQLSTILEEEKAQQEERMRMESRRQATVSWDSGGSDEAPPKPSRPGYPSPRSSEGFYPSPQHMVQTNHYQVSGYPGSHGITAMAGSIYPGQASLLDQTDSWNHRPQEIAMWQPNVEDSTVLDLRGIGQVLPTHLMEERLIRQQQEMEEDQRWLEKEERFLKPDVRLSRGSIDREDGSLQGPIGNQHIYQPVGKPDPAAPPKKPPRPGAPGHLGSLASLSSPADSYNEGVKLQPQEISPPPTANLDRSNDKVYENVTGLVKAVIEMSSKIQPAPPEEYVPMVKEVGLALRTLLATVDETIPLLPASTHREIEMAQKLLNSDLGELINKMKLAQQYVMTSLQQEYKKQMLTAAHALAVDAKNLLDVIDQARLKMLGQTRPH
smiles,measurement,setting,value
Cc1ccc(NC(=O)c2ccc(CN3CCN(C)CC3)cc2)cc1Nc1nccc(-c2cccnc2)n1 [STI571],inhibition at 1 µM,[1],9%
same,sensitization to gemcitabine by pre-treatment,[2],does not sensitize; also recorded: does not lead to the same result
CC(C)(C)n1nc(-c2ccc(Cl)cc2)c2c(N)ncnc21 [PP2],Percentage of inhibition of FAK kinase activity,[1],75%
"CC(=O)O[C@@]12CO[C@@H]1C[C@H](O)[C@@]1(C)C(=O)[C@H](O)C3=C(C)[C@@H](OC(=O)[C@H](O)[C@@H](NC(=O)OC(C)(C)C)c4ccccc4)C[C@@](O)([C@@H](OC(=O)c4ccccc4)[C@H]21)C3(C)C [Docetaxel, reference compound]",sensitivity to Docetaxel,"[3]; breast cancer cell lines, drug alone",most of the breast cancer cell lines tested exhibit resistance
"Cc1ccc(NC(=O)c2ccc(CN3CCN(C)CC3)cc2)cc1Nc1nc(-c2cccnc2)cs1 [AB1010, 4-(4-Methyl-piperazin-1-ylmethyl)-N-[4-methyl-3-(4-pyridin-3-yl-thiazol-2-ylamino)-phenyl]-benzamide]",sensitization to docetaxel,"[3]; docetaxel-resistant breast cancer cell lines, AB1010 pre-treatment",good sensitization by AB1010 for 6 out of 11
same,inhibition at 1 µM,[1],21%
same,restoration of sensitivity to gemcitabine,[4],except one
same,sensitization to gemcitabine,[5],"AB1010 sensitizes rectum HRT-18, and colon Caco-2 and SW-480"
same,sensitization to gemcitabine,[6],AB1010 sensitizes ovarian OVCAR-3 cell lines to gemcitabine
same,sensitization to gemcitabine,[7],AB1010 sensitizes lung A549 and H1299 cell lines to gemcitabine
same,sensitization to gemcitabine,[8],"AB1010 sensitizes prostate DU145, and C4-2 cell lines to gemcitabine"
same,apoptosis induced,[9],approximately 50%
same,inhibition of FAK autoactivation,[10],inhibits partially
same,sensitization to Irinotecan (CPT-11),[11],good sensitization
same,restoration of sensitivity to Paclitaxel,"[12]; resistant ovarian tumour cell lines, AB1010 pre-treatment",restores sensitivity
same,sensitization to gemcitabine by pre-treatment,"[13]; gemcitabine-sensitive Capan-2, AB1010 pre-treatment",not observed
same,sensitization to gemcitabine by pre-treatment,"[14]; Panc-1, AB1010 5 and 10 μM pre-treatment 12-16 hours before gemcitabine",reverse resistance
same,sensitization to gemcitabine by pre-treatment,"[15]; gemcitabine-sensitive BxPC-3, AB1010 pre-treatment",not observed
same,sensitization to gemcitabine by pre-treatment,[2],reverse resistance
same,apoptosis induced,[16],approximately 85%
"CC(=O)O[C@H]1C(=O)[C@@]2(C)[C@H]([C@H](OC(=O)c3ccccc3)[C@]3(O)C[C@H](OC(=O)[C@H](O)[C@@H](NC(=O)c4ccccc4)c4ccccc4)C(C)=C1C3(C)C)[C@]1(OC(C)=O)CO[C@@H]1C[C@@H]2O [Paclitaxel, reference compound]",sensitivity to Paclitaxel,"[12]; five ovarian cell lines, drug alone",Three out of the five ovarian cell lines tested exhibit strong sensitivity
"Nc1ccn(C2OC(CO)C(O)C2(F)F)c(=O)n1 (stereo not shown) [gemcitabine, 4-amino-1-[3,3-difluoro-4-hydroxy-5-(hydroxymethyl)tetrahydrofuran-2-yl]-1H-pyrimidin-2-one, reference compound]",IC50,"[13]; Homo sapiens, Capan-2, 1% FCS, drug alone, read-out: IC50, inhibition of proliferation",2 to 20 nM
same,sensitivity to gemcitabine,"[14]; Panc-1, 1% FCS, drug alone",lack of sensitivity
same,IC50,"[15]; Homo sapiens, BxPC-3, 1% FCS, drug alone, read-out: IC50, inhibition of proliferation",2 to 20 nM
same,sensitivity to gemcitabine,"[2]; Mia Paca-2, 1% FCS, drug alone",lack of sensitivity
